Laboratory results as given in patent US6635670B2, “sPLA2 inhibitors” (Eli Lilly and Company, priority 1999, dated 2003).
pIC50: −log10 of the molar value.

target: T1, recombinant human secreted phospholipase A2 (Homo sapiens, UniProt P14555); assay: chromogenic assay for inhibitors of recombinant human secreted phospholipase A2; assay type: biochemical; settings: not given
T1 sequence (P14555 21-144): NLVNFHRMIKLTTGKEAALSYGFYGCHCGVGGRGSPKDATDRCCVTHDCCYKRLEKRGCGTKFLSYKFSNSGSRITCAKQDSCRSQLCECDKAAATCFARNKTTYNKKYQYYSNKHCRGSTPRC
Description: The following chromogenic assay procedure was used to identify and evaluate inhibitors of recombinant human secreted phospholipase A2. The assay described herein has been adapted for high volume screening using 96 well microtiter plates. A general description of this assay method is found in the article, “Analysis of Human Synovial Fluid Phospholipase A2 on Short Chain Phosphatidylcholine-Mixed Micelles: Development of a Spectrophotometric Assay Suitable for a Microtiterplate Reader”, by Laure J. Reynolds, Lori L. Hughes, and Edward A Dennis, Analytical Biochemistry, 204, pp. 190-197, 1992 (the disclosure of which is incorporated herein by reference):
REACTION BUFFER —CaCl2. 2H2O (1.47 g/L) KCl (7.455 g/L) Bovine Serum Albumin (fatty acid free) (1 g/L) (Sigma A-7030, product of Sigma Chemical Co., St. Louis Mo., USA) TRIS HCl (3.94 g/L) pH 7.5 (adjust with NaOH)
ENZYME BUFFER-0.05 NaOAc.3H2O, pH 4.5 0.2 NaCl Adjust pH to 4.5 with acetic acid DTNB-5,5′-dithiobis-2-nitrobenzoic acid
RACEMIC DIHEPTANOYL THIO-PC racemic 1,2-bis(heptanoylthio)-1,2-dideoxy-sn-glycero-3-phosphorylcholine TRITON X-100™ prepare at 6.249 mg/ml in reaction buffer to equal […].
A measured volume of racemic dipheptanoyl thio PC supplied in chloroform at a concentration of 100 mg/ml is taken to dryness and redissolved in 10 millimolar
TRITON X-100™ nonionic detergent aqueous solution.
Reaction Buffer is added to the solution, then DTNB to give the Reaction Mixture.
The reaction mixture thus obtained contains 1 mM diheptanoly thio-PC substrate, 0.29 mm Triton X-100™ detergent, and 0.12 mm DTMB in a buffered aqueous solution at pH 7.5.
1. Add 0.2 ml reaction mixture to all wells;
2. Add 10 ul test compound (or solvent blank) to appropriate wells, mix 20 seconds;
3. Add 50 nanograms of sPLA2 (10 microliters) to appropriate wells;
4. Incubate plate at 40° C. for 30 minutes;
5. Read absorbance of wells at 405 nanometers with an automatic plate reader.
All compounds were tested in triplicate. Typically, compounds were tested at a final concentration of 5 ug/ml. […] Lack of color development at 405 nanometers evidenced inhibition. Compounds initially found to be active were reassayed to confirm their activity and, if sufficiently active, IC50 values were determined. […] In all cases, % inhibition measured at 405 nanometers generated by enzyme reactions containing inhibitors relative to the uninhibited control reactions was determined. Each sample was titrated in triplicate and result values were averaged for plotting and calculation of IC50 values. IC50 were determined by plotting log concentration versus inhibition values in the range from 10-90% inhibition.

Structure (SMILES)	pIC50
CCc1c(C(=O)C(N)=O)c2c(OCC(=O)OC)cccc2n1Cc1ccccc1 [Compound 1, [[3-(2-Amino-1,2-dioxoethyl)-2-ethyl-1-(phenylmethyl)-1H-indol-4-yl]oxy]acetic acid methyl ester]	7.31

same assay, conditions: diheptanoyl thio-PC substrate, pH 7.5, 40° C. for 30 minutes, absorbance at 405 nanometers; read-out: Inhibition of human secreted PLA2 IC50 ± mean deviation (3-4 tests)

Structure (SMILES)	pIC50
CCc1c(C(=O)C(N)=O)c2c(OCC(=O)NCC(=O)OC)cccc2n1Cc1ccccc1 [Compound 2A, N-[2-[[3-(Aminooxoacetyl)-2-ethyl-1-(phenylmethyl)-1H-indol-4-yl]oxy]acetyl]glycine Methyl Ester]	6.28
CCc1c(C(=O)C(N)=O)c2c(OCC(=O)N[C@@H](C)C(=O)OC)cccc2n1Cc1ccccc1 [Compound 2B, N-[2-[[3-(Aminooxoacetyl)-2-ethyl-1-(phenylmethyl)-1H-indol-4-yl]oxy]acetyl]-L-alanine Methyl Ester]	6.27
CCc1c(C(=O)C(N)=O)c2c(OCC(=O)N[C@@H](CC(C)C)C(=O)OC)cccc2n1Cc1ccccc1 [Compound 2C, N-[2-[[3-(Aminooxoacetyl)-2-ethyl-1-(phenylmethyl)-1H-indol-4-yl]oxy]acetyl]-L-leucine Methyl Ester]	7.09
CCc1c(C(=O)C(N)=O)c2c(OCC(=O)N[C@@H](CC(=O)OC)C(=O)OC)cccc2n1Cc1ccccc1 [Compound 2D, N-[2-[[3-(Aminooxoacetyl)-2-ethyl-1-(phenylmethyl)-1H-indol-4-yl]oxy]acetyl]-L-aspartic Acid Dimethyl Ester]	6.06
CCc1c(C(=O)C(N)=O)c2c(OCC(=O)N[C@@H](Cc3ccccc3)C(=O)OC)cccc2n1Cc1ccccc1 [Compound 2E, N-[2-[[3-(Aminooxoacetyl)-2-ethyl-1-(phenylmethyl)-1H-indol-4-yl]oxy]acetyl]-L-phenylalanine Methyl Ester]	6.18
CCc1c(C(=O)C(N)=O)c2c(OCC(=O)NC(C(=O)OC)C(=O)OC)cccc2n1Cc1ccccc1 [Compound 2F, [2-[[3-(Aminooxoacetyl)-2-ethyl-1-(phenylmethyl)-1H-indol-4-yl]oxy]acetamido]malonic Acid Dimethyl Ester]	6.16
CCc1c(C(=O)C(N)=O)c2c(OCC(=O)N[C@H](C(=O)OC)C(C)C)cccc2n1Cc1ccccc1 [Compound 2G, N-[2-[[3-(Aminooxoacetyl)-2-ethyl-1-(phenylmethyl)-1H-indol-4-yl]oxy]acetyl]-L-valine Methyl Ester]	6.55
CCc1c(C(=O)C(N)=O)c2c(OCC(=O)N[C@H](C(=O)OC)[C@@H](C)CC)cccc2n1Cc1ccccc1 [Compound 2H, N-[2-[[3-(Aminooxoacetyl)-2-ethyl-1-(phenylmethyl)-1H-indol-4-yl]oxy]acetyl]-L-isoleucine Methyl Ester]	6.78
CCc1c(C(=O)C(N)=O)c2c(OCC(=O)N[C@H](C(=O)O)[C@@H](C)CC)cccc2n1Cc1ccccc1 [Compound 3H, N-[2-[[3-(Aminooxoacetyl)-2-ethyl-1-(phenylmethyl)-1H-indol-4-yl]oxy]acetyl]-L-isoleucine]	7.60

Now from value to compound:

pIC50	Structure (SMILES)
7.15	CCc1c(C(=O)C(N)=O)c2c(OCC(=O)NCC(=O)O)cccc2n1Cc1ccccc1 [Compound 3A, N-[2-[[3-(Aminooxoacetyl)-2-ethyl-1-(phenylmethyl)-1H-indol-4-yl]oxy]acetyl]glycine]
7.23	CCc1c(C(=O)C(N)=O)c2c(OCC(=O)N[C@@H](C)C(=O)O)cccc2n1Cc1ccccc1 [Compound 3B, N-[2-[[3-(Aminooxoacetyl)-2-ethyl-1-(phenylmethyl)-1H-indol-4-yl]oxy]acetyl]-L-alanine]
7.55	CCc1c(C(=O)C(N)=O)c2c(OCC(=O)N[C@@H](CC(C)C)C(=O)O)cccc2n1Cc1ccccc1 [Compound 3C, N-[2-[[3-(Aminooxoacetyl)-2-ethyl-1-(phenylmethyl)-1H-indol-4-yl]oxy]acetyl]-L-leucine]
6.88	CCc1c(C(=O)C(N)=O)c2c(OCC(=O)N[C@@H](CC(=O)O)C(=O)O)cccc2n1Cc1ccccc1 [Compound 3D, N-[2-[[3-(Aminooxoacetyl)-2-ethyl-1-(phenylmethyl)-1H-indol-4-yl]oxy]acetyl]-L-aspartic Acid]
7.19	CCc1c(C(=O)C(N)=O)c2c(OCC(=O)N[C@@H](Cc3ccccc3)C(=O)O)cccc2n1Cc1ccccc1 [Compound 3E, N-[2-[[3-(Aminooxoacetyl)-2-ethyl-1-(phenylmethyl)-1H-indol-4-yl]oxy]acetyl]-L-phenylalanine]
7.35	CCc1c(C(=O)C(N)=O)c2c(OCC(=O)NC(C(=O)O)C(=O)O)cccc2n1Cc1ccccc1 [Compound 3F, [2-[[3-(Aminooxoacetyl)-2-ethyl-1-(phenylmethyl)-1H-indol-4-yl]oxy]acetamido]malonic Acid]
7.44	CCc1c(C(=O)C(N)=O)c2c(OCC(=O)N[C@H](C(=O)O)C(C)C)cccc2n1Cc1ccccc1 [Compound 3G, N-[2-[[3-(Aminooxoacetyl)-2-ethyl-1-(phenylmethyl)-1H-indol-4-yl]oxy]acetyl]-L-valine]

same assay, conditions: statement in words

Structure (SMILES)	activity in inhibiting SPLA2
CCc1c(C(=O)C(N)=O)c2c(OCC(=O)OC)cccc2n1Cc1ccccc1 [Compound 1, [[3-(2-Amino-1,2-dioxoethyl)-2-ethyl-1-(phenylmethyl)-1H-indol-4-yl]oxy]acetic acid methyl ester]	highly active
